# Assay results reported in patent US7279324B2, “Nucleic acid encoding G-protein coupled receptor with modified DRY motif” (Duke University, priority 2001, dated 2007).
# Numbering of substitutions follows the chain as printed. Entries after “also recorded” stand apart in the source; their conditions may differ.
# Tests used:
# [1] = target: T1, wild type AT1AR (Rattus norvegicus, UniProt P25095); test: βarrestin-GFP translocation in HEK-293 cells; type: cell-based; settings: 1 μM AngII
# T1 construct: expressed in transfected cells; host or cells: HEK-293
# T1 sequence (P25095 1-359): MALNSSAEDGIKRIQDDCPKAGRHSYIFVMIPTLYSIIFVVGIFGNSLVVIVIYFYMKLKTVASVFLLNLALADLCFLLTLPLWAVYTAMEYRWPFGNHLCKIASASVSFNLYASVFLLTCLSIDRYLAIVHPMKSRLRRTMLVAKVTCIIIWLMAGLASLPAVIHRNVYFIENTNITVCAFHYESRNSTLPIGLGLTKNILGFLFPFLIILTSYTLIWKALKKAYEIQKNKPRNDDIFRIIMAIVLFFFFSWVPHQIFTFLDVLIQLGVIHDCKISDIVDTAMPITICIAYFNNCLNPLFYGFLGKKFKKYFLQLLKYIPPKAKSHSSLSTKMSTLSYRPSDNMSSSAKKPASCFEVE
# Procedure: (§1) Cell Culture and Transfection—For V2R experiments: HEK-293 cells were grown in Eagle's minimal essential medium with Earle's salt (MEM) supplemented with 10% fetal bovine serum and a 1:100 dilution of penicillin/streptomycin (Sigma Chemicals, St. Louis, Mo.). Cells were transiently transfected with plasmid cDNA using a modified calcium phosphate co-precipitation method as described in Barak et al., 1997, Mol. Pharmacol., 51:177–84. For α1B-AR and AT1AR experiments: Cells were transiently transfected in 10 cm^2 dishes (Falcon) with 1 μg receptor or GRK plasmid cDNA in pCDNA3.1(−) using above modified calcium phosphate transfection coprecipitation method for inositol phosphate and binding assays. For confocal microscopy, cells were transiently transfected in collagen (Sigma) coated 35 mm^2 glass bottom confocal dishes (MatTek, Ashland, Mass.) with Lipofectamine®2000 and Opti-MEM media (Life Technologies) using a standard method (Ciccarone, V., et al., 1999, Focus 21.2, 54–55). Cells for confocal microscopy were transfected with 30 ng of βarrestin or receptor plasmid cDNA in pEGFP and 250 ng of dynamin(K44A), GRK, or receptor in pcDNA3.1/zeo.
# (§2) Confocal Microscopy—HEK-293 cells were plated on the day following transfection onto collagen (Sigma Chemical, St. Louis, Mo.) treated 35 mm^2 glass-bottomed culture dishes. […]
# [2] = target: T2, AT1AR R126H (Rattus norvegicus, UniProt P25095, L81C/R126H/S109T); test: βarrestin-GFP translocation in HEK-293 cells; type: cell-based; settings: 1 μM AngII
# T2 construct: expressed in transfected cells; host or cells: HEK-293
# T2 sequence (P25095 1-359 L81C/S109T/R126H): T1 sequence (P25095 1-359) with L81C, S109T, R126H
# Procedure: as §1, §2
# [3] = target: T2, AT1AR R126H; test: [3H]inositol phosphate accumulation in HEK-293 cells; type: cell-based; settings: stimulated with AngII (1 μM, 1 μg elsewhere in the source)
# Procedure: Inositol Phosphate Determination—Transiently transfected HEK-293 cells in 10 cm^2 dishes were plated onto 12-well plates (Falcon) coated with […] poly-D-lysine (Sigma) and incubated overnight in MEM+10% FBS (fetal bovine serum) at 37° C. To assay for inositol phosphate production, cells were incubated overnight at 37° C. in labeling media (1 μCi/0.5 ml/well of [^3H]inositol in MEM+5% fetal bovine serum). Cells were washed with MEM, 20 mM HEPES, pH 7.4, 20 mM LiCl for 5 minutes at 37° C. and then treated with agonist. Total inositol phosphate was extracted and separated as previously described in Cotecchia, S., et al., 1992, J. Biol. Chem. 267: 1633–1639.
# [4] = target: T3, wild type AT1AR-GFP (Rattus norvegicus, UniProt P25095); test: Receptor-GFP localization by confocal microscopy in HEK-293 cells; type: cell-based; settings: 1 μM AngII
# T3 construct: expressed in transfected cells; host or cells: HEK-293
# T3 sequence (P25095 1-359): T1 sequence (P25095 1-359)
# Procedure: as §1, §2
# [5] = target: T4, α1B-AR R143E-GFP (Mesocricetus auratus, UniProt P18841, R143E); test: Plasma membrane receptor expression by whole cell [3H]prazosin binding; type: cell-based, golden hamster; settings: cultured in 10 μM phentolamine at 37° C. overnight; 8 nM [3H]prazosin
# T4 construct: expressed in transfected cells; host or cells: HEK-293
# T4 sequence (P18841 1-515 R143E): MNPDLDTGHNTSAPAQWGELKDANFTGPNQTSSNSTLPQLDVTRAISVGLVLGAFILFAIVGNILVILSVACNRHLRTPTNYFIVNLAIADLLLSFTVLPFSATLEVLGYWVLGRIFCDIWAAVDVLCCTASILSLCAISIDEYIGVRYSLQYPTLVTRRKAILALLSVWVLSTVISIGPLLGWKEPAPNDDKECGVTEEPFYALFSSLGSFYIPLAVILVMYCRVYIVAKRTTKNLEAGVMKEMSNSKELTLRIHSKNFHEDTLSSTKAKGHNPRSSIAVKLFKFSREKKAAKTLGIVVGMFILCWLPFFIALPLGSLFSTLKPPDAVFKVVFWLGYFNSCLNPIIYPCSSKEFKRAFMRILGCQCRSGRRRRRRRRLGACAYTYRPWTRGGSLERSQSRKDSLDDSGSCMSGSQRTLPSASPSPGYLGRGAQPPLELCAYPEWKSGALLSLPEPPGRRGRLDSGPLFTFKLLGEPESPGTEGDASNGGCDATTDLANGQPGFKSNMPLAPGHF
# Procedure: (§4) For α1B-AR and AT1AR experiments: Transiently transfected HEK-293 cells in 10 cm^2 dishes were washed twice in cold binding buffer (MEM+2% bovine serum albumin [BSA]), incubated for 1 hour at room temperature in binding buffer with varying concentrations of [^3H]prazosin (0.25 nM–8 nM), and washed three times in cold binding buffer to remove unbound ligand. Cell bound [^3H]prazosin was measured using a scintillation counter. Nonspecific binding was determined in the presence of 1000-fold molar excess of phentolamine (10 μM). For binding assays done to measure the effect of the co-expression of dynamin(K44A) or the addition of phentolamine in FIG. 14, a fixed concentration of 8 nM [^3H]prazosin was used.
# [6] = target: T5, wild type α1B-AR-GFP (Mesocricetus auratus, UniProt P18841); test: Receptor-GFP localization by confocal microscopy in HEK-293 cells; type: cell-based, golden hamster
# T5 construct: expressed in transfected cells; host or cells: HEK-293
# T5 sequence (P18841 1-515): T4 sequence (P18841 1-515 R143E) with E143R
# Procedure: as §1
# (§3) Confocal Microscopy—HEK-293 cells were plated on the day following transfection onto collagen (Sigma Chemical, St. Louis, Mo.) treated 35 mm^2 glass-bottomed culture dishes. Confocal microscopy was performed with a Zeiss laser-scanning microscope (LSM-510). GFP images were collected using the 488 nm argon excitation and a 505 nm long pass filter. For α1B-AR and AT1AR experiments: HEK-293 cells were transiently transfected in 35 mm^2 confocal dishes. Cells were stimulated with 10 μM NE or 1 μM AngII and incubated at 37° C. for 30 minutes before viewing. Alternatively, cells were cultured overnight at 37° C. in 10 μM phentolamine or 1 μM L158,809. Confocal microscopy was performed at 100× magnification with a Zeiss laser-scanning microscope (LSM-510). GFP and FITC images were collected using 488-nm excitation and a 505-nm long-pass filter.
# [7] = target: T4, α1B-AR R143E-GFP; test: as above; type: cell-based, golden hamster; settings: cultured in 10 μM phentolamine at 37° C. overnight, no agonist
# Procedure: as §1, §3
# [8] = test system: α1B-AR R143 mutants; test: [3H]inositol phosphate accumulation in HEK-293 cells; type: cell-based, golden hamster; settings: 10 μM NE; R143 substituted with Ala, Glu, His or Asn
# Procedure: (§5) Inositol Phosphate Determination—Transiently transfected HEK-293 cells in 10 cm^2 dishes were plated onto 12-well plates (Falcon) coated with 25 mg/ml poly-D-lysine (Sigma) and incubated overnight in MEM+10% FBS (fetal bovine serum) at 37° C. To assay for inositol phosphate production, cells were incubated overnight at 37° C. in labeling media (1 μCi/0.5 ml/well of [^3H]inositol in MEM+5% fetal bovine serum). Cells were washed with MEM, 20 mM HEPES, pH 7.4, 20 mM LiCl for 5 minutes at 37° C. and then treated with agonist.
# [9] = target: T6, wild type α1B-AR (Mesocricetus auratus, UniProt P18841); test: [3H]prazosin whole cell binding, Scatchard analysis, HEK-293 cells; set-up: species or system golden hamster; settings: [3H]prazosin Scatchard, read-out: KD for NE
# T6 construct: expressed in transfected cells; host or cells: HEK-293
# T6 sequence (P18841 1-515): T4 sequence (P18841 1-515 R143E) with E143R
# Procedure: as §4
# [10] = target: T7, α1B-AR R143A (Mesocricetus auratus, UniProt P18841, R143A); test: as above; set-up: species or system golden hamster; settings: [3H]prazosin Scatchard, similar to wild type, read-out: KD for NE
# T7 construct: expressed in transfected cells; host or cells: HEK-293
# T7 sequence (P18841 1-515 R143A): T4 sequence (P18841 1-515 R143E) with E143A
# Procedure: as §4
# [11] = target: T6, wild type α1B-AR; test: [3H]inositol phosphate accumulation in HEK-293 cells; type: cell-based, golden hamster; settings: 10 μM NE, 30 min., vs absence of agonist
# Procedure: as §5
# [12] = test system: α1B-AR R143 mutants; test: βarrestin-GFP translocation in HEK-293 cells; type: cell-based, golden hamster; settings: 10 μM NE (data not shown)
# Procedure: as §1, §2
# [13] = target: T6, wild type α1B-AR; test: βarrestin-GFP translocation in HEK-293 cells; type: cell-based, golden hamster; settings: 10 μM NE
# Procedure: as §1, §2
# [14] = test system: mock; test: Whole cell cAMP accumulation in HEK-293 cells; type: cell-based; settings: 2.5 μM AVP for 15 min., mean±SD, n=3
# [15] = target: T8, AT1AR R126H-GFP (Rattus norvegicus, UniProt P25095, L81C/R126H/S109T); test: Receptor-GFP localization by confocal microscopy in HEK-293 cells; type: cell-based; settings: cultured in 1 μM L158,809, no agonist
# T8 construct: expressed in transfected cells; host or cells: HEK-293
# T8 sequence (P25095 1-359 L81C/S109T/R126H): T1 sequence (P25095 1-359) with L81C, S109T, R126H
# Procedure: as §1, §2
molecule,measurement,setting,value
angiotensin II [AngII],distribution of βarrestin-GFP,[1],redistribution of the βarrestin-GFP into endocytic vesicles
same,distribution of βarrestin-GFP,[2],enhanced distribution of βarrestin-GFP into endocytic vesicles
same,[3H]-IP accumulation / signaling compared to stimulated wild type AT1AR,[3],slight impairment of signaling; also recorded: levels identical to HEK cells transfected with wild type AT1AR
same,distribution of receptor-GFP,[4],internalization of the receptor into endocytic vesicles
Cc1ccc(N(CC2=NCCN2)c2cccc(O)c2)cc1 [phentolamine],plasma membrane receptor expression (whole cell [3H]prazosin binding),[5],increases to the level of the wild type receptor
same,distribution of receptor-GFP,[6]; cultured in 10 μM phentolamine at 37° C. overnight,no alteration in the expression of the receptor at the plasma membrane; also recorded: no effect on the distribution of the wild type α1B-AR-GFP
same,distribution of receptor-GFP,[7],complete reversal; also recorded: redistribution of the α1B-AR R143E-GFP from endosomes to the plasma membrane
"NC[C@H](O)c1ccc(O)c(O)c1 [NE, Norepinephrine]",agonist-induced IP response,[8],significantly impaired ability to mediate an agonist-induced IP response
same,Kd,[9],1.5 to 3.5 nM
same,Kd,[10],1.5 to 3.5 nM
same,distribution of receptor-GFP,"[6]; 10 μM NE, 30 minutes at 37° C.",loss of plasma membrane expression and the redistribution of the receptor to endocytic vesicles
same,increase of [3H]-IP accumulation,[11],6 fold
same,distribution of βarrestin-GFP,[12],enhances this translocation
same,distribution of βarrestin-GFP,[13],rapid translocation of βarrestin-GFP to the plasma membrane
"NC(=O)CC[C@@H]1NC(=O)[C@H](Cc2ccccc2)NC(=O)[C@H](Cc2ccc(O)cc2)NC(=O)[C@@H](N)CSSC[C@@H](C(=O)N2CCC[C@H]2C(=O)N[C@@H](CCCN=C(N)N)C(=O)NCC(N)=O)NC(=O)[C@H](CC(N)=O)NC1=O [AVP, Arginine vasopressin]",stimulated cAMP response,[14],0.017±0.006 (counts of [^3H]cAMP per min. per well)/(counts of [^3H]adenine uptake per minute per well)
"CCc1nc2c(C)cc(C)nc2n1Cc1ccc(-c2ccccc2-c2nnn[nH]2)cc1 [L158,809, 2-ethyl-5,7-dimethyl-3-[[2′-(1H-tetrazol-5-yl)[1,1′-biphenyl]-4-yl]methyl]-3H-Imidazo[4,5-b]pyridine]",distribution of receptor-GFP,[15],reversal of the receptor localization back to the plasma membrane; also recorded: redistribution of the receptor back to the plasma membrane
